This note sets out measurements from publication PMC3511273, “Identification of PPARgamma Partial Agonists of Natural Origin (I): Development of a Virtual Screening Procedure and In Vitro Validation” (PLoS ONE, 2012).

The target of one assay is T1, PPARγ ligand-binding domain (PPARγ LBD) (Homo sapiens, UniProt P37231).
T1 construct: gene PPARG
T1 sequence (P37231 238-505 limits assumed): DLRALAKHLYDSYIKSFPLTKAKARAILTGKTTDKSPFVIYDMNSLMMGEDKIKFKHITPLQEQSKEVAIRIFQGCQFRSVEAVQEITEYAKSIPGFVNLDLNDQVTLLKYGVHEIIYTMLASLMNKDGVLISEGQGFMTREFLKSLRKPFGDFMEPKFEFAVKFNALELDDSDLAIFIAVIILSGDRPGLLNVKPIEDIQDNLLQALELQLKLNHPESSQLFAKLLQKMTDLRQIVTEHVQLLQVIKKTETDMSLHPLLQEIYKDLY
Description: fluorescence polarization competition (PolarScreen PPARγ Competitor Assay Green). The note with it: displacement of fluorescent PPARγ ligand; ex 485 nm, em 535 nm; unreliable.
`Cc1ccc(C2(CC(=O)O)CCOC(C)(C)C2)cc1` (stereo not drawn) [C2, ZINC00201868] registered an IC50 of more than 8000 µM.

For the molecule `COc1ccc(C(O)=C2C(=O)C(=O)N(Cc3cccnc3)C2c2ccc(O)cc2)c(C)c1` (stereo not drawn) [C3, ZINC00914339], the IC50 is more than 8000 µM.

For the molecule `Cc1oc2c(C)c3oc(=O)c(CC(=O)N4CCC(C(=O)O)CC4)c(C)c3cc2c1C` [C6, ZINC02156886], the IC50 was more than 8000 µM.

Staying with this assay, now noted: read-out: Binding affinityIC50.
On to `C=C(C)COc1ccc2oc(-c3ccccc3)c(C(=O)O)c2c1` [C1, ZINC00083676], for which the IC50 worked out at 12.4 µM.

`CC(C)C(NC(=O)C(Cc1ccccc1)n1c(=O)[nH]c2ccccc2c1=O)C(=O)O` (stereo not drawn) [C5, ZINC02128851]: the IC50 worked out at 1000 µM.

On to `Cc1ccc(C(c2ccc(C)o2)c2ccccc2C(=O)O)o1` [C7, ZINC03846929], for which the IC50 came out at 252 µM.

As for `Cc1cc(C)c2c(O)nn(C3CCOC(C)(C)C3)c2n1` (stereo not drawn) [C8, ZINC04040746], the IC50 was determined as 460 µM.

`CC1(C)SC2c3ccccc3C(=O)N2C1C(=O)NC(Cc1ccccc1)C(=O)O` (stereo not drawn) [C9, ZINC04085288]: the IC50 amounted to 585 µM.

On to `CC(C)C[C@H](NC(=O)OCC1c2ccccc2-c2ccccc21)C(=O)O` [FMOC, reference compound], for which the IC50 was 18.5 µM.
